Literature values as cited in PMC8745345, “Hydroxy Pentacyclic Triterpene Acid, Kaempferol, Inhibits the Human 5-Hydroxytryptamine Type 3A Receptor Activity” (International Journal of Molecular Sciences, 2022).

Test system: 5-HT3A
Conditions: cited from earlier work

SMILES: Cc1nccn1CC1CCc2c(c3ccccc3n2C)C1=O (stereo not drawn) [ondansetron]
- IC50 (5-HT3 antagonist potency): 4.9 nM
- mode of antagonism: competitive antagonist
- efficacy of antagonist against I5-HT(100uM) of 5-HT3A (serotonin 100 uM): ~100%
